Results from PubChem BioAssay AID652241 (Broad Institute, 2013).
Records with an inconclusive call do not appear. Calls of active or inactive are those of the source.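 How the source made its calls: active means fitted curve reaches activity 50 in the expected rising direction at or below the top valid tested dose; inconclusive means no clear call, values can overlap the other calls; inactive means activity in the wrong direction, and the rest.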

Molecular target: Virion infectivity factor (Human immunodeficiency virus type 1 group M subtype B (isolate BH10)) + Virion infectivity factor (Human immunodeficiency virus type 1 group M subtype B (isolate BRU/LAI)) + Virion infectivity factor (Human immunodeficiency virus type 1 group M subtype B (isolate PCV12)) + Virion infectivity factor (Human immunodeficiency virus type 1 group M subtype B (isolate HXB2)) (UniProt P69720+P69721+P69722+P69723)
Assay: dose-dependent disruption of HIV Vif self-association – imaging, HEK293T, cherry-picks, dose response (AID 652241);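 further: imaged cell signal that rises when Vif self-association is disrupted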
Details: HEK293T Vif multimerization imaging, 24 h; for activity, higher = inhibition: at 19.5 µM (top of the series)

Virion infectivity factor (Human immunodeficiency virus type 1 group M subtype B (isolate BH10)) + Virion infectivity factor (Human immunodeficiency virus type 1 group M subtype B (isolate BRU/LAI)) + Virion infectivity factor (Human immunodeficiency virus type 1 group M subtype B (isolate PCV12)) + Virion infectivity factor (Human immunodeficiency virus type 1 group M subtype B (isolate HXB2)), sequence (P69720 whole entry, looked up): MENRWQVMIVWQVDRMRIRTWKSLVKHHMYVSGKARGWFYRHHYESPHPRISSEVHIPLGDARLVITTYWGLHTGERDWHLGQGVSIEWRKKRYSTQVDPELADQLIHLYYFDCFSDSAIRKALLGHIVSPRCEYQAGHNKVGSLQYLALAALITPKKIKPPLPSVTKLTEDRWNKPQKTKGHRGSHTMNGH
Virion infectivity factor (Human immunodeficiency virus type 1 group M subtype B (isolate BH10)) + Virion infectivity factor (Human immunodeficiency virus type 1 group M subtype B (isolate BRU/LAI)) + Virion infectivity factor (Human immunodeficiency virus type 1 group M subtype B (isolate PCV12)) + Virion infectivity factor (Human immunodeficiency virus type 1 group M subtype B (isolate HXB2)), sequence (P69721 whole entry, looked up): as the sequence (P69720 whole entry, looked up) above
Virion infectivity factor (Human immunodeficiency virus type 1 group M subtype B (isolate BH10)) + Virion infectivity factor (Human immunodeficiency virus type 1 group M subtype B (isolate BRU/LAI)) + Virion infectivity factor (Human immunodeficiency virus type 1 group M subtype B (isolate PCV12)) + Virion infectivity factor (Human immunodeficiency virus type 1 group M subtype B (isolate HXB2)), sequence (P69722 whole entry, looked up): as the sequence (P69720 whole entry, looked up) above
Virion infectivity factor (Human immunodeficiency virus type 1 group M subtype B (isolate BH10)) + Virion infectivity factor (Human immunodeficiency virus type 1 group M subtype B (isolate BRU/LAI)) + Virion infectivity factor (Human immunodeficiency virus type 1 group M subtype B (isolate PCV12)) + Virion infectivity factor (Human immunodeficiency virus type 1 group M subtype B (isolate HXB2)), sequence (P69723 whole entry, looked up): as the sequence (P69720 whole entry, looked up) above

Row | Structure (SMILES) | activity, higher = inhibition | AC50
1 | Cc1cc(OCC(C)C)ccc1/C(O)=C1/C(=O)C(=O)N(Cc2cccnc2)C1c1ccncc1 (centres undefined) | inactive | 
2 | NCCCCCC(=O)Nc1ccncc1 | inactive | 
3 | Cc1c(NC(=O)c2cc3ccccc3oc2=O)c(=O)n(-c2ccccc2)n1C | inactive | 
4 | CCNC(=O)[C@H]1O[C@@H](n2cnc3c(N)nc(NCCc4ccc(CCC(=O)O)cc4)nc32)[C@H](O)[C@@H]1O | inactive | 
5 | CCc1ccc2[nH]c3nc(SCC(=O)NNC(=O)c4ccc(C(C)(C)C)cc4)nnc3c2c1 |  | 7.22 µM
6 | CC(C)(C)NC(=O)CN(Cc1ccc(F)cc1)C(=O)Cn1nnc(-c2ccc(F)cc2)n1 | inactive | 
7 | Cc1ccc(NC(=O)/C=C/c2ccco2)nc1 |  | 8.31 µM
8 | CC(C)OCCCNc1ncnc2c1[nH]c1ccc(F)cc12 | inactive | 
9 | CCN(CC)C(=O)c1cccc(NC(=O)C2=COCCO2)c1 | inactive | 
10 | O=C(O)/C=C/C(=O)Nc1cccc(C(F)(F)F)c1 | inactive | 
11 | CNC(=O)c1ccc(NC(=O)c2cc(S(=O)(=O)N(C)C)ccc2N2CCCC2)cc1 | inactive | 
12 | COC(=O)c1ccc(NCc2cc(O)ccc2O)cc1O |  | 10.9 µM
13 | COc1cc(/C=C/C(=O)O)ccc1S(=O)(=O)N1CCCc2ccccc21 | inactive | 
14 | CCOc1ccc(NC(=O)CN(C)C(=O)c2cc(S(=O)(=O)N3CCCCC3)ccc2Cl)cc1OCC | inactive | 
